Experimental data reported in patent publication US8741567B2, “Composition and methods related to modification of 5-hydroxymethylcytosine (5-hmC)” (The University of Chicago, priority 2010, dated 2014).

Tests used:
[1] = tested on: four different polymerases; assay: Primer extension and PCR with 5-gmC-containing DNA; format: biochemical
Source text: The inventors synthesized the phosphoramidite of 5-hmC (now commercially available from Glen Research) and prepared duplex DNA with 5-hmC incorporated at specific locations.

HpaII = HpaII (Haemophilus parainfluenzae, UniProt P36433); format: biochemical; details: 40-mer DNA
MspI [2] = target: T1, MspI (Moraxella sp, UniProt P11405); assay: MspI restriction digestion of 40-mer DNA with CC*GG; format: biochemical; details: 40-mer duplex DNA
Source text: FIG. 2. Restriction enzyme digestion assay of a 40 mer DNA with CC*GG (where C*=C, 5-meC, 5-hmC, or 5-gmC).
The inventors tested a restriction enzyme digestion assay with a 40-mer DNA containing a CC*GG (C*=C, 5-meC, 5-hmC, or 5-gmC) sequence in the middle. […] With bulkier groups on 5-hmC, digestions by other restriction enzymes that recognize DNA sequences containing CpG can be blocked.

wild-type βGT = wild-type βGT (Enterobacteria phage T4, UniProt P04547)
Taq polymerase = target: T2, Taq polymerase (Thermus aquaticus, UniProt P19821); assay: Primer extension assay on 40-mer DNA template; format: biochemical; details: streptavidin added (6 eq.-48 eq.), 72° C., 1 min
T2 construct: purchased Sigma
Source text: FIGS. 9A-9B. The streptavidin adduct of biotin-5-N3-gmC hinders primer extension. (A) Sequence of 40 mer DNA containing cytosines derivatives used in primer extension. Cytosine 25, counting from right to left, with an asterisk presented the modified cytosines in the sequences, and also the position at which DNA polymerases tended to stall when the streptavidine adduct of biotin-5-N3-gmC-containing DNA was used as template. The arrow corresponded to the reverse PCR primer used for primer extension. (B) Primer extension assays for 40 mer DNA containing different cytosine species, shown beside a Sanger sequencing ladder. […] Position with the most significant stalling was position 24, one base before the modified position, although significant stalling still observed in the modified position (position 25, arrow). Primer extension using Sigma TaqRED polymerase, extension at 72° C. for 1 min. Sequencing ladder was performed with Sequenase from USB.
The properties of 5-hmC in duplex DNA are quite similar to those of 5-mC in terms of its sensitivity toward enzymatic reactions such as restriction enzyme digestion and polymerization (Flusberg et al., 2010; Josse and Kornberg, 1962; Lariviere and Morera, 2004). In an attempt to develop a method to differentiate these two bases in DNA, primer extension with a biotin-N3-5-gmC-modified DNA template was tested. […]

MspI [3] = target: T1, MspI; assay: MspI digestion of 32-mer dsDNA with C*CGG; details: 100 U MspI, 1 hr, 37° C.
TaqαI = target: T3, TaqαI (Thermus aquaticus, UniProt P14386); assay: TaqαI digestion of 32-mer dsDNA with T*CGA; details: 100 U TaqαI, 1 hr, 65° C.
T3 sequence (P14386 1-263): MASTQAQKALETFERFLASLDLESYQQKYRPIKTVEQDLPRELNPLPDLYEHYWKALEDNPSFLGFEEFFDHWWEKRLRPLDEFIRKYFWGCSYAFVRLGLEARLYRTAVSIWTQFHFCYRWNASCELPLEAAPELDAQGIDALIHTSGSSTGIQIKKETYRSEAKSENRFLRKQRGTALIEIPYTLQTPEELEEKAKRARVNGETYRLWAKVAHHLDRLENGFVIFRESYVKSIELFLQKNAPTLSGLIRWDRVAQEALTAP

T1 sequence (P11405 whole entry): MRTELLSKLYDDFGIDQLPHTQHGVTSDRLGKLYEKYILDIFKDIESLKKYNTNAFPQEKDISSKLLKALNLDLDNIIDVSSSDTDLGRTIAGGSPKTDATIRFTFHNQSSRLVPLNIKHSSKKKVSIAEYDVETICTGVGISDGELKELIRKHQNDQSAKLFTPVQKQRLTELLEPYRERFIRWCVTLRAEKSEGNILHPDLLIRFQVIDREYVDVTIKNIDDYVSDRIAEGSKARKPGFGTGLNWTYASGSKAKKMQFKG
Chain of wild-type βGT (P04547 with tags, fused parts or gaps): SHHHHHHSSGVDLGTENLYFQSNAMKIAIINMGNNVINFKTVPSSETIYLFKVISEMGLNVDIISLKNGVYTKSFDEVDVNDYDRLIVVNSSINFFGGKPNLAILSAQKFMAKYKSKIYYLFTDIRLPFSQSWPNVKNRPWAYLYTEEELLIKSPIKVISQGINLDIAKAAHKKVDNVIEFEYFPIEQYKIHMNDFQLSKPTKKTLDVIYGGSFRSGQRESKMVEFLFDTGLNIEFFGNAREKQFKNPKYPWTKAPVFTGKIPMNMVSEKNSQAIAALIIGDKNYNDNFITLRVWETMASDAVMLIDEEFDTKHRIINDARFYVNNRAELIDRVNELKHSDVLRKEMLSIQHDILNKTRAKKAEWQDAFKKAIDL
T2 sequence (P19821 whole entry): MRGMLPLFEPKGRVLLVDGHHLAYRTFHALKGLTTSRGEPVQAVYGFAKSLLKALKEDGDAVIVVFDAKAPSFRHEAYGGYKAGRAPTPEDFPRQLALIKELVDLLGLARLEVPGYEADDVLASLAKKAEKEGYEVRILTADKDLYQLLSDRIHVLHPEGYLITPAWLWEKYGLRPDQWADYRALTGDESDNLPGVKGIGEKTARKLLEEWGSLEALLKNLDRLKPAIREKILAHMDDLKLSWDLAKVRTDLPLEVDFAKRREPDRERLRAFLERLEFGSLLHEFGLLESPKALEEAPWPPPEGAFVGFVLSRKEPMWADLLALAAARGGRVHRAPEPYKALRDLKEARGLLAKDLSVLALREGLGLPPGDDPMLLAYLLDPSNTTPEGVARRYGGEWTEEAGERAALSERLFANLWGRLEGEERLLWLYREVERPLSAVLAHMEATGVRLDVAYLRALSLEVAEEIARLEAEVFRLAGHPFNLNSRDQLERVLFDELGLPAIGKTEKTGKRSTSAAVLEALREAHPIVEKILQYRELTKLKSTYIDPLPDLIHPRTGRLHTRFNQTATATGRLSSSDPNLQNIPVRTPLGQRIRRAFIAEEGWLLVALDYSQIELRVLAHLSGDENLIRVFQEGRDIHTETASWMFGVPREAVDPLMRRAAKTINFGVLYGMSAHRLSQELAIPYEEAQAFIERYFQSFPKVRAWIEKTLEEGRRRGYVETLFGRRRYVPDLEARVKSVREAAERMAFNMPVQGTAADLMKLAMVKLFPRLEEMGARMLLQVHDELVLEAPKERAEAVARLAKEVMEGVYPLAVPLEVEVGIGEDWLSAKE
Chain of HpaII (P36433 whole entry, looked up): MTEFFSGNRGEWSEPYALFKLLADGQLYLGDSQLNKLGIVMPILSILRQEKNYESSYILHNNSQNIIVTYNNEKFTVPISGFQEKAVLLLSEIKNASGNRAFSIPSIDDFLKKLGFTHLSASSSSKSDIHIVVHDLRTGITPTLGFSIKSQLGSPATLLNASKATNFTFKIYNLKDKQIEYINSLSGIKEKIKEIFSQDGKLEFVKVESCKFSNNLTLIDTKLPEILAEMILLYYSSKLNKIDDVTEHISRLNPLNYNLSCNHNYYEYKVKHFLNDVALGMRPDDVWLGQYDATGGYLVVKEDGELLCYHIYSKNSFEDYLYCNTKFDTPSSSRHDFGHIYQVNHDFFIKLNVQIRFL

β-glucosyl-5-hydroxymethyl-cytosine [5-gmC]
interference with polymerization reaction [1]: does not exhibit any interference | HpaII cutting of modified CC*GG site (HpaII): does not cut | MspI cutting of modified CC*GG site (MspI [2]): completely blocks | MspI cutting of modified CC*GG site (MspI [2]; listed as C(5-gmC)GG): completely blocked

Uridine 5′-(2,3,4-tri-O-acetyl-6-azido-6-deoxy-α-D-glucopyranosyl)diphosphate bistriethylammonium salt [UDP-6-N3-Glu]
efficiency of transfer to 5-hmC-containing duplex DNA relative to UDP-Glu (wild-type βGT): as efficiently as with UDP-Glu | time for 6-N3-glucose transfer reaction to finish (wild-type βGT; 11-mer duplex DNA with 5-hmC, as low as 1% enzyme concentration): ≤ 5 min

β-6-azide-glucosyl-5-hydroxymethyl-cytosine [N3-5-gmC]
primer extension on modified template with streptavidin (Taq polymerase): completely stalled | MspI digestion, fully-modified DNA (MspI [3]): block MspI digestion completely | MspI digestion, hemi-modified DNA (MspI [3]): can be protected from digestion | TaqαI digestion, hemi-modified DNA (TaqαI; hemi-hydroxymethylation): cannot block digestion as well as the fully-modified one | TaqαI digestion, fully-modified DNA (TaqαI; modified on both strands): only partially
